Measurements taken from PubChem BioAssay (NCI).
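Test compounds were applied to cells in 96-well plates for 48 hours at 5 doses. The concentration for 50% growth inhibition is given as GI50. TGI is the concentration that stops growth completely.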

How the values were obtained:
Assay in all cases: NCI anticancer screen, dose series, 48 h
OVCAR-5 ovarian = system: OVCAR-5 ovarian
DU-145 prostate = system: DU-145 prostate
SF-268 CNS = system: SF-268 CNS
NCI-H460 lung = system: NCI-H460 lung
MCF7 breast = system: MCF7 breast
PC-3 prostate = system: PC-3 prostate
NCI-H226 lung = system: NCI-H226 lung
MALME-3M melanoma = system: MALME-3M melanoma
NCI/ADR-RES ovarian = system: NCI/ADR-RES ovarian
UACC-62 melanoma = system: UACC-62 melanoma
SW-620 colon = system: SW-620 colon
CAKI-1 renal = system: CAKI-1 renal
M14 melanoma = system: M14 melanoma
HCT-15 colon = system: HCT-15 colon
UACC-257 melanoma = system: UACC-257 melanoma
SNB-19 CNS = system: SNB-19 CNS
SF-295 CNS = system: SF-295 CNS
HOP-92 NSCLC = system: HOP-92 NSCLC
NCI-H522 lung = system: NCI-H522 lung
A549 NSCLC = system: A549 NSCLC
MOLT-4 leukemia = system: MOLT-4 leukemia
HOP-62 NSCLC = system: HOP-62 NSCLC
A498 renal = system: A498 renal
MDA-MB-231 breast = system: MDA-MB-231 breast
NCI-H23 lung = system: NCI-H23 lung
SNB-75 CNS = system: SNB-75 CNS
UO-31 renal = system: UO-31 renal
HT29 colon = system: HT29 colon
OVCAR-3 ovarian = system: OVCAR-3 ovarian
SK-OV-3 ovarian = system: SK-OV-3 ovarian
SK-MEL-2 melanoma = system: SK-MEL-2 melanoma
SR leukemia = system: SR leukemia
SF-539 CNS = system: SF-539 CNS
LOX IMVI melanoma = system: LOX IMVI melanoma
BT-549 breast = system: BT-549 breast
SK-MEL-5 melanoma = system: SK-MEL-5 melanoma
SN12C renal = system: SN12C renal
RXF 393 renal = system: RXF 393 renal
SK-MEL-28 melanoma = system: SK-MEL-28 melanoma
K-562 leukemia = system: K-562 leukemia
COLO 205 colon = system: COLO 205 colon
CCRF-CEM leukemia = system: CCRF-CEM leukemia
ACHN renal = system: ACHN renal
IGROV1 ovarian = system: IGROV1 ovarian
U251 CNS = system: U251 CNS
T-47D breast = system: T-47D breast
OVCAR-8 ovarian = system: OVCAR-8 ovarian
EKVX NSCLC = system: EKVX NSCLC
KM12 colon = system: KM12 colon
OVCAR-4 ovarian = system: OVCAR-4 ovarian
RPMI-8226 leukemia = system: RPMI-8226 leukemia
HS 578T breast = system: HS 578T breast
HL-60(TB) leukemia = system: HL-60(TB) leukemia
HCT-116 colon = system: HCT-116 colon
TK-10 renal = system: TK-10 renal
MDA-MB-435 = system: MDA-MB-435
HCC-2998 colon = system: HCC-2998 colon
786-0 renal = system: 786-0 renal

Compound: Cc1cn(-c2cc(NC(=O)c3cncc(C#Cc4cnc5ccc(O[C@@H]6CCOC6)nn45)c3)cc(C(F)(F)F)c2)cn1
- GI50 (OVCAR-5 ovarian): 0.268 µM
- TGI (OVCAR-5 ovarian): 1.67 µM
- GI50 (DU-145 prostate): 0.222 µM
- TGI (DU-145 prostate): 1.58 µM
- GI50 (SF-268 CNS): 0.191 µM
- TGI (SF-268 CNS): 1.03 µM
- GI50 (NCI-H460 lung): 0.144 µM
- TGI (NCI-H460 lung): 0.699 µM
- GI50 (MCF7 breast): 0.0729 µM
- TGI (MCF7 breast): 0.717 µM
- GI50 (PC-3 prostate): 0.28 µM
- TGI (PC-3 prostate): 4.21 µM
- GI50 (NCI-H226 lung): 0.0566 µM
- TGI (NCI-H226 lung): 0.454 µM
- GI50 (MALME-3M melanoma): 0.164 µM
- TGI (MALME-3M melanoma): 0.693 µM
- GI50 (NCI/ADR-RES ovarian): 6.46 µM
- TGI (NCI/ADR-RES ovarian): 23.1 µM
- GI50 (UACC-62 melanoma): 0.204 µM
- TGI (UACC-62 melanoma): 0.949 µM
- GI50 (SW-620 colon): 0.157 µM
- TGI (SW-620 colon): 0.557 µM
- GI50 (CAKI-1 renal): 0.495 µM
- TGI (CAKI-1 renal): 1.51 µM
- GI50 (M14 melanoma): 0.138 µM
- TGI (M14 melanoma): 0.353 µM
- GI50 (HCT-15 colon): 0.687 µM
- TGI (HCT-15 colon): 2.37 µM
- GI50 (UACC-257 melanoma): 0.467 µM
- TGI (UACC-257 melanoma): 2.75 µM
- GI50 (SNB-19 CNS): 0.261 µM
- TGI (SNB-19 CNS): 1.75 µM
- GI50 (SF-295 CNS): 0.355 µM
- TGI (SF-295 CNS): 2.41 µM
- GI50 (HOP-92 NSCLC): 0.0228 µM
- TGI (HOP-92 NSCLC): 0.0963 µM
- GI50 (NCI-H522 lung): 0.111 µM
- TGI (NCI-H522 lung): 0.33 µM
- GI50 (A549 NSCLC): 0.206 µM
- TGI (A549 NSCLC): 0.958 µM
- GI50 (MOLT-4 leukemia): 0.0642 µM
- TGI (MOLT-4 leukemia): 0.678 µM
- GI50 (HOP-62 NSCLC): 0.183 µM
- TGI (HOP-62 NSCLC): 0.883 µM
- GI50 (A498 renal): 0.504 µM
- TGI (A498 renal): 1.09 µM
- GI50 (MDA-MB-231 breast): 0.074 µM
- TGI (MDA-MB-231 breast): 0.403 µM
- GI50 (NCI-H23 lung): 0.19 µM
- TGI (NCI-H23 lung): 0.784 µM
- GI50 (SNB-75 CNS): < 0.0436 µM
- TGI (SNB-75 CNS): 0.226 µM
- GI50 (UO-31 renal): 1.45 µM
- TGI (UO-31 renal): 3.55 µM
- GI50 (HT29 colon): 0.188 µM
- TGI (HT29 colon): 0.947 µM
- GI50 (OVCAR-3 ovarian): 0.217 µM
- TGI (OVCAR-3 ovarian): 0.849 µM
- GI50 (SK-OV-3 ovarian): 0.392 µM
- TGI (SK-OV-3 ovarian): 2.23 µM
- GI50 (SK-MEL-2 melanoma): 0.21 µM
- TGI (SK-MEL-2 melanoma): 0.512 µM
- GI50 (SR leukemia): 0.0527 µM
- TGI (SR leukemia): 0.936 µM
- GI50 (SF-539 CNS): 0.0398 µM
- TGI (SF-539 CNS): 0.231 µM
- GI50 (LOX IMVI melanoma): 0.0856 µM
- TGI (LOX IMVI melanoma): 0.535 µM
- GI50 (BT-549 breast): 0.625 µM
- TGI (BT-549 breast): 1.73 µM
- GI50 (SK-MEL-5 melanoma): 0.615 µM
- TGI (SK-MEL-5 melanoma): 1.71 µM
- GI50 (SN12C renal): 0.0856 µM
- TGI (SN12C renal): 0.601 µM
- GI50 (RXF 393 renal): 0.215 µM
- TGI (RXF 393 renal): 0.535 µM
- GI50 (SK-MEL-28 melanoma): 0.312 µM
- TGI (SK-MEL-28 melanoma): 1.09 µM
- TGI (K-562 leukemia): 3.25 µM
- GI50 (COLO 205 colon): 0.0757 µM
- TGI (COLO 205 colon): 0.213 µM
- GI50 (CCRF-CEM leukemia): 0.0486 µM
- GI50 (ACHN renal): 0.689 µM
- TGI (ACHN renal): 2.77 µM
- GI50 (IGROV1 ovarian): 0.103 µM
- TGI (IGROV1 ovarian): 0.534 µM
- GI50 (U251 CNS): 0.246 µM
- TGI (U251 CNS): 1.02 µM
- GI50 (T-47D breast): 0.442 µM
- TGI (T-47D breast): 4.26 µM
- GI50 (OVCAR-8 ovarian): 0.257 µM
- TGI (OVCAR-8 ovarian): 1.14 µM
- GI50 (EKVX NSCLC): 0.257 µM
- TGI (EKVX NSCLC): 1.27 µM
- TGI (KM12 colon): 1.79 µM
- GI50 (OVCAR-4 ovarian): 0.155 µM
- TGI (OVCAR-4 ovarian): 1 µM
- GI50 (RPMI-8226 leukemia): 0.397 µM
- GI50 (HS 578T breast): 0.124 µM
- TGI (HS 578T breast): 0.559 µM
- GI50 (HL-60(TB) leukemia): 0.181 µM
- TGI (HL-60(TB) leukemia): 0.613 µM
- GI50 (HCT-116 colon): 0.0797 µM
- TGI (HCT-116 colon): 0.616 µM
- GI50 (TK-10 renal): 0.362 µM
- TGI (TK-10 renal): 1.56 µM
- GI50 (MDA-MB-435): 0.144 µM
- TGI (MDA-MB-435): 0.714 µM
- GI50 (HCC-2998 colon): 0.32 µM
- TGI (HCC-2998 colon): 1.5 µM
- GI50 (786-0 renal): 0.286 µM
- TGI (786-0 renal): 0.936 µM
